Measured values published in patent US20250346600A1, “TRICYCLIC DERIVATIVES AND RELATED USES” (MOMA Therapeutics, Inc., priority 2023, published 2025).
Read-outs that look alike come from different tables or passages of the source.

Tests used:
[1] = molecular target: Full length WRN protein (aa 2-1432) (Homo sapiens (Human), UniProt Q14191); test: WRN ATPase ADP-Glo biochemical assay, Assay Format B (100 μM ATP); conditions: 0.25 nM WRN, 100 nM C6.18 ssDNA, 60 min preincubation, read-out: ATPase ADPGlo AC50 (uM)- Assay Format B
HCT116 cells = test: HCT116 (MSI) 7 day viability, CellTiter Glo; type: cell-based; conditions: 7 days, read-out: HCT116 (MSI) Viability 7 Day Abs AC50
Description: (§1) Compounds were dissolved in DMSO to a concentration of 10 mM. Compounds were then serially diluted in 10 3-fold steps in DMSO using an EVO (Tecan). Plates were then spun down for 1 minute at 1,000 RPM at room temperature.
(§2) The colon carcinoma lines HCT116 (RRID: CVCL_0291) and HT29 (RRID: CVCL_0320) were obtained from ATCC. […] All cells were maintained at 37° C. with 5% CO2 incubator.
(§3) After harvesting, cells were spun down for 5 minutes at 1200 RPM. Cells were resuspended in 10 mL of growth media and counted using Countess (Thermo Fisher). Cell concentrations were adjusted to 50 cells/well for HCT116 and 500 cells/well for HT29. 50 μL of diluted cells were added to compound treated 384 well plates using a 12 channel, 300 uL electronic handheld pipette (Integra). Cell treated plates were placed in 37 C with 5% CO2 incubator for 7 days.
(§4) Afterwards, cells were removed from incubator and equilibrated to room temperature for 15 minutes. 35 uL of CellTiter Glo (Promega #G7573) reagent were added to each well using a 12 channel, 300 uL electronic handheld pipette (Integra). Plates were incubated for 20 minutes at room temperature. Luminescence quantification was performed using Envision (PerkinElmer).
(§5) For data analysis, the assay background signal was determined in wells containing medium, but no cells. Potencies were calculated by linear least squares fit to the four-parameter logistic IC50 equation. The reported IC50 values are the geometrical mean of at least 2 independent replicates.

HT29 cells = test: HT29 (MSS) 7 day viability, CellTiter Glo; type: cell-based; conditions: 7 days, read-out: HT29 (MSS) Viability 7 Day CTGAbs AC50
Description: as §1, §2, §3, §4, §5

Sequence of Full length WRN protein (aa 2-1432) (Q14191 2-1432): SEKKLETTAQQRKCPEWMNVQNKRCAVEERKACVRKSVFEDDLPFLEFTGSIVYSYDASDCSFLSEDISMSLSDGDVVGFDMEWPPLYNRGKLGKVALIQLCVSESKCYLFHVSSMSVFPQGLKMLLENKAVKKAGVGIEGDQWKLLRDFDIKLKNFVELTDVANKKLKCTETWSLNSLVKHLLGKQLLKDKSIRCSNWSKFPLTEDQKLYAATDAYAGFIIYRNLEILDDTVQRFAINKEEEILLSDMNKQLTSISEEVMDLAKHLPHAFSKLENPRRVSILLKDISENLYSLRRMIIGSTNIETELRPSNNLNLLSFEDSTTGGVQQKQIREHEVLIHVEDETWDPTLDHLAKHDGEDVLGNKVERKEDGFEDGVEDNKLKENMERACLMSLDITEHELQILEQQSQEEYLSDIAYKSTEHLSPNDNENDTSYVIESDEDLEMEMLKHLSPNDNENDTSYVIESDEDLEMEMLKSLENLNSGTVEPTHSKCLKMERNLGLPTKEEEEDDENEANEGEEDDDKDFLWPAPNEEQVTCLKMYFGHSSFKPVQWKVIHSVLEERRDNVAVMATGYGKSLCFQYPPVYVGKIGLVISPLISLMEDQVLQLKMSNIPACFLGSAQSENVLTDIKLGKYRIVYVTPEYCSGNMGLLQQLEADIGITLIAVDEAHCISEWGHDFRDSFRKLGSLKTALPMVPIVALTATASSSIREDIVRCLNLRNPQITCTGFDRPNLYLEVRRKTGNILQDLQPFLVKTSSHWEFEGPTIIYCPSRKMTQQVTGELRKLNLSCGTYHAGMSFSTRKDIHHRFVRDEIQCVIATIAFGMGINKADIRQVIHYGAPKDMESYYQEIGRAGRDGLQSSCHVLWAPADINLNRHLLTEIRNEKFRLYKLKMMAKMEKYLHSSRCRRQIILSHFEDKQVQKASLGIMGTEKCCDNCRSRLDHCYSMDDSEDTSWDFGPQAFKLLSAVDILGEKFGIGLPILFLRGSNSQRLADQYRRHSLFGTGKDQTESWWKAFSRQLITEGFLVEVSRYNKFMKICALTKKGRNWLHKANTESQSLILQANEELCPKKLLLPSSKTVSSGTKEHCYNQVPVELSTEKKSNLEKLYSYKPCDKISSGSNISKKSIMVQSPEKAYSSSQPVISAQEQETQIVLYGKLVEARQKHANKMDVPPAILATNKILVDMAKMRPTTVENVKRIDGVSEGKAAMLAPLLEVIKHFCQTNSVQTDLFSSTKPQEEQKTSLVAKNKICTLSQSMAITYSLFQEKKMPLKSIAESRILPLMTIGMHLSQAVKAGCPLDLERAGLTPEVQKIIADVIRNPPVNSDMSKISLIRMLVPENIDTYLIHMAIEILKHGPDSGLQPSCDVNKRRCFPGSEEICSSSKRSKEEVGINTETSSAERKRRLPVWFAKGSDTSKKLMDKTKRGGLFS

Compound | AC50 [1] [µM] | AC50 (HCT116 cells) [nM] | AC50 (HT29 cells) [nM] | AC50 (HCT116 cells; Homo sapiens, HCT-116, 168 h) [nM] | AC50 (HT29 cells; Homo sapiens, HT-29, 168 h) [nM]
C=CC(=O)N1CCc2nn(-c3ccc(C4CC4)cc3O)c3c2C(C1)N(C(=O)c1cnc(C(F)(F)F)c(OC)c1N)CC3 (stereo not drawn) [Compound 216, 1-(5-(4-amino-5-methoxy-6-(trifluoromethyl)nicotinoyl)-2-(4-cyclopropyl-2-hydroxyphenyl)-2,3,4,5,5a,6,8,9-octahydro-7H-1,2,5,7-tetraazabenzo[cd]azulen-7-yl)prop-2-en-1-one] | 0.0015 to 0.005 | 1 to 100 | > 3000 | – | –
C=CC(=O)N1CCc2nn(-c3ccc(C4CCCC4)cc3O)c3c2C(C1)N(C(=O)c1cnc(C(F)(F)F)cc1N)CC3 (stereo not drawn) [Compound 217, 1-(5-(4-amino-6-(trifluoromethyl)nicotinoyl)-2-(4-cyclopentyl-2-hydroxyphenyl)-2,3,4,5,5a,6,8,9-octahydro-7H-1,2,5,7-tetraazabenzo[cd]azulen-7-yl)prop-2-en-1-one] | 0.0015 to 0.005 | – | – | 1 to 100 | > 3000
C=CC(=O)N1CCc2nn(-c3ccc(C4CC4)c(F)c3O)c3c2C(C1)N(C(=O)c1cnc(C(F)(F)F)c(F)c1N)CC3 (stereo not drawn) [Compound 218, 1-(5-(4-amino-5-fluoro-6-(trifluoromethyl)nicotinoyl)-2-(4-cyclopropyl-3-fluoro-2-hydroxyphenyl)-2,3,4,5,5a,6,8,9-octahydro-7H-1,2,5,7-tetraazabenzo[cd]azulen-7-yl)prop-2-en-1-one] | 0.005 to 0.015 | – | – | 1 to 100 | > 3000
C=CC(=O)N1CCc2nn(C34CC(C5CCCC5)(C3)C4)c3c2C(C1)N(C(=O)c1cnc(C(F)(F)F)cc1N)CC3 (stereo not drawn) [Compound 219, 1-(5-(4-amino-6-(trifluoromethyl)nicotinoyl)-2-(3-cyclopentylbicyclo[1.1.1]pentan-1-yl)-2,3,4,5,5a,6,8,9-octahydro-7H-1,2,5,7-tetraazabenzo[cd]azulen-7-yl)prop-2-en-1-one] | 0.005 to 0.015 | 1 to 100 | > 3000 | – | –
C=CC(=O)N1CCc2nn(-c3ccc(C4CC4)cc3)c3c2C(C1)N(C(=O)c1c(N)nc(C(F)(F)F)c(F)c1N)CC3 (stereo not drawn) [Compound 220, 1-(2-(4-cyclopropylphenyl)-5-(2,4-diamino-5-fluoro-6-(trifluoromethyl)nicotinoyl)-2,3,4,5,5a,6,8,9-octahydro-7H-1,2,5,7-tetraazabenzo[cd]azulen-7-yl)prop-2-en-1-one] | 0.0015 to 0.005 | – | – | 1 to 100 | > 3000
C=CC(=O)N1CCc2nn(-c3ccc(C4CC4)cc3O)c3c2C(C1C)N(C(=O)c1cnc(C(F)(F)F)cc1N)CC3 (stereo not drawn) [Compound 221, 1-(5-(4-amino-6-(trifluoromethyl)nicotinoyl)-2-(4-cyclopropyl-2-hydroxyphenyl)-6-methyl-2,3,4,5,5a,6,8,9-octahydro-7H-1,2,5,7-tetraazabenzo[cd]azulen-7-yl)prop-2-en-1-one] | 0.005 to 0.015 | – | – | 1 to 100 | > 3000
C=CC(=O)N1CC(OC2CC(C#N)C2)c2nn(-c3ccc(C4CC4)cc3O)c3c2C(C1)N(C(=O)c1cnc(C(F)(F)F)cc1N)CC3 (stereo not drawn) [Compound 222, 3-((7-acryloyl-5-(4-amino-6-(trifluoromethyl)nicotinoyl)-2-(4-cyclopropyl-2-hydroxyphenyl)-3,4,5,5a,6,7,8,9-octahydro-2H-1,2,5,7-tetraazabenzo[cd]azulen-9-yl)oxy)cyclobutane-1-carbonitrile] | 0.0015 to 0.005 | – | – | 1 to 100 | > 3000
C=CC(=O)N1CCc2nn(-c3ccc(C4CC4)cc3O)c3c2C(C1)N(C(=O)c1cnc(SC)c(F)c1N)CC3 (stereo not drawn) [Compound 223, 1-(5-(4-amino-5-fluoro-6-(methylthio)nicotinoyl)-2-(4-cyclopropyl-2-hydroxyphenyl)-2,3,4,5,5a,6,8,9-octahydro-7H-1,2,5,7-tetraazabenzo[cd]azulen-7-yl)prop-2-en-1-one] | 0.0015 to 0.005 | – | – | 1 to 100 | > 3000
C=CC(=O)N1CCc2nn(-c3cc(F)c(C4CC4)cc3O)c3c2C(C1)N(C(=O)c1cnc(C(F)(F)F)cc1N)CC3 (stereo not drawn) [Compound 224, 1-(5-(4-amino-6-(trifluoromethyl)nicotinoyl)-2-(4-cyclopropyl-5-fluoro-2-hydroxyphenyl)-2,3,4,5,5a,6,8,9-octahydro-7H-1,2,5,7-tetraazabenzo[cd]azulen-7-yl)prop-2-en-1-one] | 0.005 to 0.015 | – | – | 1 to 100 | > 3000
C=CC(=O)N1CCc2nn(-c3ccc(C4CC4)cc3CO)c3c2C(C1)N(C(=O)c1cnc(C(F)(F)F)cc1N)CC3 (stereo not drawn) [Compound 225, 1-(5-(4-amino-6-(trifluoromethyl)nicotinoyl)-2-(4-cyclopropyl-2-(hydroxymethyl)phenyl)-2,3,4,5,5a,6,8,9-octahydro-7H-1,2,5,7-tetraazabenzo[cd]azulen-7-yl)prop-2-en-1-one] | 0.015 to 0.055 | – | – | 100 to 250 | > 3000
C=CC(=O)N1CCc2nn(-c3ccc(SC(F)(F)F)cc3O)c3c2C(C1)N(C(=O)c1cnc(C(F)(F)F)cc1N)CC3 (stereo not drawn) [Compound 226, 1-(5-(4-amino-6-(trifluoromethyl)nicotinoyl)-2-(2-hydroxy-4-((trifluoromethyl)thio)phenyl)-2,3,4,5,5a,6,8,9-octahydro-7H-1,2,5,7-tetraazabenzo[cd]azulen-7-yl)prop-2-en-1-one] | 0.005 to 0.015 | – | – | 1 to 100 | > 3000
C=CC(=O)N1CCc2nn(-c3ccc(C4CC4)c(F)c3O)c3c2C(C1)N(C(=O)c1cnc(C(C)(F)F)c(F)c1N)CC3 (stereo not drawn) [Compound 227, 1-(5-(4-amino-6-(1,1-difluoroethyl)-5-fluoronicotinoyl)-2-(4-cyclopropyl-3-fluoro-2-hydroxyphenyl)-2,3,4,5,5a,6,8,9-octahydro-7H-1,2,5,7-tetraazabenzo[cd]azulen-7-yl)prop-2-en-1-one] | 0.005 to 0.015 | – | – | 1 to 100 | < 1000
C=CC(=O)N1CCc2nn(-c3ccc(C4CC4)cc3O)c3c2C(C1)N(C(=O)c1nnc(Br)cc1N)CC3 (stereo not drawn) [Compound 228, 1-(5-(4-amino-6-bromopyridazine-3-carbonyl)-2-(4-cyclopropyl-2-hydroxyphenyl)-2,3,4,5,5a,6,8,9-octahydro-7H-1,2,5,7-tetraazabenzo[cd]azulen-7-yl)prop-2-en-1-one] | 0.0015 to 0.005 | – | – | 1 to 100 | > 3000
C=CC(=O)N1CCc2nn(-c3ccc(C4CC4)c(F)c3O)c3c2C(C1)N(C(=O)c1cnc(Br)c(F)c1N)CC3 (stereo not drawn) [Compound 229, 1-(5-(4-amino-6-bromo-5-fluoronicotinoyl)-2-(4-cyclopropyl-3-fluoro-2-hydroxyphenyl)-2,3,4,5,5a,6,8,9-octahydro-7H-1,2,5,7-tetraazabenzo[cd]azulen-7-yl)prop-2-en-1-one] | 0.015 to 0.055 | 1 to 100 | > 3000 | – | –
C=CC(=O)N1CC2c3c(nn(-c4ccc(C5CC5)cc4)c3CCN2C(=O)c2ccc(C(F)(F)F)cc2)C(n2ccccc2=O)C1 (stereo not drawn) [Compound 231, 1-(7-acryloyl-2-(4-cyclopropylphenyl)-5-(4-(trifluoromethyl)benzoyl)-3,4,5,5a,6,7,8,9-octahydro-2H-1,2,5,7-tetraazabenzo[cd]azulen-9-yl)pyridin-2(1H)-one] | 0.015 to 0.055 | – | – | 1 to 100 | > 3000
